Measured values from patent US5002931A, “GRF analogs VII” (The Salk Institute for Biological Studies, priority 1987, dated 1991).
Square brackets hold non-standard residues; d marks the D form. Ends that are not written are not given here. Peptide text beside a SMILES is read from it. NMeY = CN[C@@H](Cc1ccc(O)cc1)C(=O)O; Nle = CCCC[C@H](N)C(=O)O

The molecules below were run on cells of rat pituitary glands (assay: in vitro assay of growth hormone release from cultured rat pituitary cells, GH measured by radioimmunoassay). Details: release of GH at equimolar concentrations, side-by-side with synthetic hpGRF(1-40)-OH standard = 100%; incubation 3 to 4 hours.
Type: cell-based
Description: To determine the relative effectiveness of certain representative synthetic peptides to promote the release of growth hormone, in vitro assays are carried out using synthetic hpGRF(1-40)-OH as a standard in side-by-side comparison with equimolar concentrations of the representative analogs which have been synthesized. Cultures are used which include cells of rat pituitary glands removed some three to five days previously. Such cultures are considered optimal for the secretion of growth hormone and are used for the comparative testing, in the general manner described in Vale et al. Endocrinoloqy, 91, 562-572 (1972) and as more particularly described in Vale et al. Endocrinology, 112, 1553-1555 (1983). Incubation with the substance to be tested is carried out for 3 to 4 hours, and aliquots of the culture medium are removed and processed to measure their contents in immunoreactive GH(ir GH) by a well-characterized radioimmunoassay.

In order of falling Comparison %:
1. CCCC[C@H](NC(=O)[C@@H](NC(=O)[C@H](CC(=O)O)NC(=O)[C@H](CCC(N)=O)NC(=O)[C@H](CC(C)C)NC(=O)[C@H](CC(C)C)NC(=O)[C@H](CCCCN)NC(=O)[C@H](CCCNC(=N)N)NC(=O)[C@H](C)NC(=O)[C@H](CO)NC(=O)[C@H](CC(C)C)NC(=O)[C@H](CCC(N)=O)NC(=O)[C@H](C)NC(=O)[C@H](CC(C)C)NC(=O)[C@@H](NC(=O)[C@H](CCCCN)NC(=O)[C@H](CCCNC(=N)N)NC(=O)[C@H](Cc1ccc(O)cc1)NC(=O)[C@H](CO)NC(=O)[C@H](CCCCN)NC(=O)[C@@H](NC(=O)[C@H](Cc1ccccc1)NC(=O)[C@@H](NC(=O)[C@H](C)NC(=O)[C@H](CC(=O)O)NC(=O)[C@H](C)NC(=O)[C@H](Cc1ccc(O)cc1)NC)[C@@H](C)CC)[C@@H](C)O)C(C)C)[C@@H](C)CC)C(=O)N[C@@H](CC(N)=O)C(=O)N[C@@H](CCCNC(=N)N)C(N)=O [[N^a MeTyr^1, Lys^8, Ala^15, Nle^27, Asn^28]-hGRF(1-29)-NH2] (H-[NMeY]ADAIFTKSYRKVLAQLSARKLLQDI[Nle]NR-NH2)  556%
2. CCCC[C@H](NC(=O)[C@@H](NC(=O)[C@H](CC(=O)O)NC(=O)[C@H](CCC(N)=O)NC(=O)[C@H](CC(C)C)NC(=O)[C@H](CC(C)C)NC(=O)[C@H](CCCCN)NC(=O)[C@H](CCCNC(=N)N)NC(=O)[C@H](C)NC(=O)[C@H](CO)NC(=O)[C@H](CC(C)C)NC(=O)[C@H](CCC(N)=O)NC(=O)[C@H](C)NC(=O)[C@H](CC(C)C)NC(=O)[C@@H](NC(=O)[C@H](CCCCN)NC(=O)[C@H](CCCNC(=N)N)NC(=O)[C@H](Cc1ccc(O)cc1)NC(=O)[C@H](CO)NC(=O)[C@H](CC(=O)O)NC(=O)[C@@H](NC(=O)[C@H](Cc1ccccc1)NC(=O)[C@@H](NC(=O)[C@H](C)NC(=O)[C@H](CC(=O)O)NC(=O)[C@H](C)NC(=O)[C@H](Cc1ccc(O)cc1)NC)[C@@H](C)CC)[C@@H](C)O)C(C)C)[C@@H](C)CC)C(=O)N[C@@H](CC(N)=O)C(=O)N[C@@H](CCCNC(=N)N)C(N)=O [[N^a MeTyr^1, Asp^8, Ala^15, Nle^27, Asn^28]-hGRF(1-29)-NH2] (H-[NMeY]ADAIFTDSYRKVLAQLSARKLLQDI[Nle]NR-NH2)  192%
3. CCCC[C@H](NC(=O)[C@@H](NC(=O)[C@H](CC(=O)O)NC(=O)[C@H](CCC(N)=O)NC(=O)[C@H](CC(C)C)NC(=O)[C@H](CC(C)C)NC(=O)[C@@H](CCCCN)NC(=O)[C@H](CCCNC(=N)N)NC(=O)[C@H](C)NC(=O)[C@H](CO)NC(=O)[C@H](CC(C)C)NC(=O)[C@H](CCC(N)=O)NC(=O)CNC(=O)[C@H](CC(C)C)NC(=O)[C@@H](NC(=O)[C@H](CCCCN)NC(=O)[C@H](CCCNC(=N)N)NC(=O)[C@H](Cc1ccc(O)cc1)NC(=O)[C@H](CO)NC(=O)[C@H](CC(N)=O)NC(=O)[C@@H](NC(=O)[C@H](Cc1ccccc1)NC(=O)[C@@H](NC(=O)[C@H](C)NC(=O)[C@H](CC(=O)O)NC(=O)[C@H](C)NC(=O)[C@H](Cc1ccc(O)cc1)NC)[C@@H](C)CC)[C@@H](C)O)C(C)C)[C@@H](C)CC)C(=O)N[C@@H](CO)C(=O)N[C@@H](CCCNC(=N)N)C(N)=O [[N^a MeTyr^1, D-Lys^21, Nle^27]-hGRF(1-29)-NH]  172%
4. hGRF(1-40)-OH (YADAIFTNSYRKVLGQLSARKLLQDIMSRQQGESNQERGA-OH; UniProt P01286 32-71, looked up, fragment) [synthetic human pancreatic (tumor) GH releasing factor 1-40 free acid, used as standard in the assays, reference compound]  100%
5. CCCC[C@H](NC(=O)[C@@H](NC(=O)[C@H](CC(=O)O)NC(=O)[C@H](CCC(N)=O)NC(=O)[C@H](CC(C)C)NC(=O)[C@H](CC(C)C)NC(=O)[C@@H](CCCCN)NC(=O)[C@H](CCCNC(=N)N)NC(=O)[C@H](C)NC(=O)[C@H](CO)NC(=O)[C@H](CC(C)C)NC(=O)[C@H](CCC(N)=O)NC(=O)CNC(=O)[C@H](CC(C)C)NC(=O)[C@@H](NC(=O)[C@H](CCCCN)NC(=O)[C@H](CCCNC(=N)N)NC(=O)[C@@H](Cc1ccc(O)cc1)NC(=O)[C@H](CO)NC(=O)[C@H](CC(N)=O)NC(=O)[C@@H](NC(=O)[C@H](Cc1ccccc1)NC(=O)[C@@H](NC(=O)[C@H](C)NC(=O)[C@H](CC(=O)O)NC(=O)[C@H](C)NC(=O)[C@H](Cc1ccc(O)cc1)NC)[C@@H](C)CC)[C@@H](C)O)C(C)C)[C@@H](C)CC)C(=O)N[C@@H](CO)C(=O)N[C@@H](CCCNC(=N)N)C(N)=O [[N^a MeTyr^1, D-Tyr^10, D-Lys^21, Nle^27]-hGRF(1-29)-NH2]  40%
